Key:
CDK2/CycE = biological target: T1, CDK2/CycE (Homo sapiens, UniProt P24941); assay: CDK2/CycE kinase assay (TR-FRET, 2 mM ATP); type: biochemical; conditions: 2 mM ATP (high ATP); median; read-out: CDK2/CyclinE, 2 mM ATP (high ATP), IC50 (median)
T1 construct: purchased ProQinase GmbH (Freiburg, Germany); host or cells: insect cells (Sf9)
In short: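 GST-tagged human CDK2 and CycE from Sf9 cells, about 10 ng/ml, pre-incubated 15 min at 22 °C with compound in Tris/HCl pH 8.0 buffer. Reaction with 2 mM ATP and 0.75 µM biotinylated peptide for 25 min at 22 °C. Phospho-RB antibody TR-FRET (665/620 nm ratio) read after 1 h; data normalised to no-inhibitor and no-enzyme controls.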

CDK12/CycK = CDK12/CycK (Homo sapiens, UniProt Q9NYV4); assay: CDK12/CycK high ATP kinase assay (TR-FRET, 2 mM ATP); type: biochemical; conditions: 2 mM ATP (high ATP); median; read-out: CDK12/CyclinK, 2 mM ATP (high ATP), IC50-[mol/l] (median)
In short: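 His-tagged human CDK12/CycK (~0.75 nM) pre-incubated 15 min with compound, then 60 min at 22 °C with 2 mM ATP and 1 µM biotinylated peptide (HEPES pH 7.5, 20 mM MgCl2). EDTA stop; phospho-Ser62 antibody/Eu anti-rabbit and streptavidin-XL665 TR-FRET, 665/620 nm ratio normalised to give IC50.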

CDK12/CycK, sequence (Q9NYV4 with tags, fused parts or gaps): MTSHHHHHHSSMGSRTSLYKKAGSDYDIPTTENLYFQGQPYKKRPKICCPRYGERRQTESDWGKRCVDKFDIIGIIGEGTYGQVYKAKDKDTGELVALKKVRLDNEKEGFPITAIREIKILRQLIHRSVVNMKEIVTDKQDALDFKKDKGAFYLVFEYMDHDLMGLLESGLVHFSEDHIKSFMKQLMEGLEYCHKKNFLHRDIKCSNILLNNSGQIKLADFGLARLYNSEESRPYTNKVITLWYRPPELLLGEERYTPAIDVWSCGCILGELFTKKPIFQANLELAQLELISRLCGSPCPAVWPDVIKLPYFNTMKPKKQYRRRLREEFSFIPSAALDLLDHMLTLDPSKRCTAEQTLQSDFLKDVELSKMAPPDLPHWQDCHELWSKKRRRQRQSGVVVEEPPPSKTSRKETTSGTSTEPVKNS
CDK12/CycK, sequence (O75909 1-300 partner limits assumed): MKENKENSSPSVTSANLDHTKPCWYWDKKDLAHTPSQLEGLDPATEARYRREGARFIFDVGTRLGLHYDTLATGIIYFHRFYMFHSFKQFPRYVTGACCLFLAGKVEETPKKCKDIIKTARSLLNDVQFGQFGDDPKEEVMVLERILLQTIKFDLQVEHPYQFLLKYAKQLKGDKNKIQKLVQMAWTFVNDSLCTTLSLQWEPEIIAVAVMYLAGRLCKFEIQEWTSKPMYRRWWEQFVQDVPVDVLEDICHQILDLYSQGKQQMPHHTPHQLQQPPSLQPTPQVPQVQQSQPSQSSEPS

Structure (SMILES)	IC50 (CDK2/CycE) [µM]	IC50 (CDK12/CycK) [µM]
Cc1cnn2c(NCc3nc4c(F)c(F)ccc4[nH]3)nc(N3CCOCC3)nc12 [Example 392, N-[(4,5-difluoro-1H-benzimidazol-2-yl)methyl]-8-methyl-2-(morpholin-4-yl)pyrazolo[1,5-a][1,3,5]triazin-4-amine]	> 20	4.37
CCNc1nc(NCc2ncc(-c3ccccc3)[nH]2)n2ncc(C(C)C)c2n1 [Example 34, N^2-ethyl-N^4-[(5-phenyl-1H-imidazol-2-yl)methyl]-8-(propan-2-yl)pyrazolo[1,5-a][1,3,5]triazine-2,4-diamine]	6.18	> 5.71
Fc1ccc2[nH]c(CNc3nc(N4CCN5CCC4CC5)nc4c(C(F)(F)F)cnn34)nc2c1F [Example 407, 2-(1,4-diazabicyclo[3.2.2]nonan-4-yl)-N-[(4,5-difluoro-1H-benzimidazol-2-yl)methyl]-8-(trifluoromethyl)pyrazolo[1,5-a][1,3,5]triazin-4-amine]	> 20	0.706

Source: patent publication US20230117034A1, “PYRAZOLOTRIAZINES” (Bayer Aktiengesellschaft, priority 2019, published 2023)
